Measured values taken from ChEMBL document CHEMBL2440095, “Synthesis and activity of novel tetrazole compounds and their pyrazole-4-carbonitrile precursors against Leishmania spp” (Bioorg Med Chem Lett, 2013).

Columns and labels:
[1] = Cytotoxicity against mouse RAW264.7 cells after 24 hrs by MTT assay; format: cell-based
Leishmania amazonensis = experiment: Antipromastigote activity against Leishmania amazonensis MHOM/BR/77/LTB0016 after 24 hrs by MTT assay; format: functional, organism-based; conditions: MHOM/BR/77/LTB0016, 24 h
Leishmania braziliensis = experiment: Antipromastigote activity against Leishmania braziliensis MCAN/BR/98/R619 after 24 hrs by MTT assay; format: functional, organism-based; conditions: MCAN/BR/98/R619, 24 h

N=C(N)c1ccc(OCCCCCOc2ccc(C(=N)N)cc2)cc1 [PENTAMIDINE] gave a CC50 at 24 h [1] of 25.5 µM, an IC50 (Leishmania amazonensis) of 3.38 µM and an IC50 (Leishmania braziliensis) of 13 µM.
